Results taken from patent publication US20250275938A1, “COMPOSITIONS AND METHODS FOR TREATMENT OF CANCER” (SCIROSBIO (FZC), priority 2022, published 2025).

Tests used:
[1] = LC/MS of drugs and active metabolites in plasma and brain (blood brain barrier); format: in vivo, rat
Procedure: T, M & E (Sigma Aldrich, St. Louis, USA) were dissolved in sterile water and administered intra peritoneally for 7 days (from day 21 to day 27; where the day of tumor induction is considered day 0) to a rat with the dose specified in Table-4 (TME: 50+80+150 mg/kg body weight). After 7 days of treatment (on day 28), blood (plasma) was collected and the rat was euthanized, immediately the brain tissue was collected and stored at −80° C. The brain tissue was then processed accordingly to measure active metabolites through LC/MS.
To 100 μl of plasma or brain (0.5 g crushed in 0.5 mL of sterile water), 20 μl of the working internal standard solution was added. The samples were deproteinised with acetonitrile and the supernatant (100 μl) was injected into the chromatographic system. For the brain, as described above, ciprofloxacin solution (20 μl) was added to 100 μl of crushed brain. Then, repeating the plasma sample process, 20 μl of the solution was injected into the chromatographic system.

rat brain tissue [2] = test: Western blotting and ELISA of brain tissue proteins; format: in vivo; details: i.p. 7 days
rat brain tissue [3] = test: Gene expression (qRT-PCR) in brain tissue of glioma-induced rats; format: in vivo; details: i.p. 7 days; vs tumor-control
Procedure: Quantitative RT-PCR analysis of antioxidant enzymes (SOD and CAT), oxidative stress marker (Nrf-2), and apoptosis markers (BCL2 and Caspase-9). Total RNA from all experimental groups was isolated using RNA Express reagent (HiMedia, India) and the respective cDNAs were synthesized using a Hi-c-DNA Synthesis Kit (HiMedia, India). Quantitative RT-PCR was carried out using a CFX 96 thermocycler (Bio-Rad, Hercules, CA) and TB Green Premix Ex Taq 1 (Takara Bio, Otsu, Japan) to detect mRNA. Independent experiments were conducted in triplicate. The cycle threshold (Ct), representing a positive PCR result, is defined as the cycle number at which a sample's fluorescence intensity crossed the threshold automatically determined by the CFX 96.
The relative changes in gene expression were calculated with the 2^−ΔΔCt method, wherein ΔΔCt=(Cttarget gene−Ctβ-actin) sample−([…]) calibrator.
The qPCR analyses were performed to measure the expression levels of genes associated with anti-Warburg effect. The total RNA was extracted from the cell lysates and brain tissues of all the experimental groups using TRIZOL reagent (Takara Bio, Shiga, Japan). Quantitative RT-PCR was carried out using a CFX96 Real Time PCR Detection System (Bio-Rad, California, USA) and TB Green Premix Ex Taq I (Takara Bio, Shiga, Japan) to detect messenger ribonucleic acid (mRNA). […]

TBARS in U87MG cells = test: TBARS (MDA) assay, U87MG; format: cell-based, human; details: vs control
Procedure: (§1) Determination of TBARS levels. TBARS (thiobarbituric acid reactive substances), by-products of lipid peroxidation, were analyzed by measuring the concentration of malondialdehyde (MDA). The levels of MDA were measured in cell lysates using TBARS assay (Catalog No. 10009055, Cayman Chemical, Ann Arbor, USA). The concentration of lipid peroxides was calculated as an MDA equivalent using the extinction coefficient for the MDA-TBA complex of 1.56×10^5 M−1 cm^−1 at 532 nm.

[4] = system: human hepatocellular carcinoma (HepG2) cells; test: MTT cell viability assay, HepG2; format: cell-based; details: 24 hours
Procedure: Cell lines and culture conditions. A human hepatocellular carcinoma (HepG2) and ovarian cancer (SKOV3) cells were obtained from National Centre for Cell Science (NCCS), Pune, India. The cells HepG2 and SKOV3 were sub-cultured in Eagle's Minimum Essential Medium (EMEM) and McCoy's 5a supplemented with 10% FBS at 5% CO2 and 37° C. […] The cells were allowed to attach 70% to the surface prior to treatment. A stock solution of all the drugs (10 mg/ml) was made in distilled H2O and diluted to the required concentrations. Suspensions were aspirated 10 times before treatment. Cells treated with vehicle control were used as a control.

[5] = system: SOD, CAT, GPx, GSH in U87MG glioma cells; test: Antioxidant marker kits (SOD, CAT, GPx, GSH), U87MG; format: cell-based, human; details: vs control
Procedure: Antioxidant markers. […] All experiments were carried out according to the manufacturer's instructions. Three independent biological replicates were performed for each condition.

TBARS in C6 cells = test: TBARS (MDA) assay, C6; format: cell-based, rat; details: vs control
Procedure: as §1

[6] = triple combination TME 50+80+150 mg/kg i.p. 7 days, NA = not detected

## O=C(O[C@@H]1Cc2c(O)cc(O)cc2O[C@@H]1c1cc(O)c(O)c(O)c1)c1cc(O)c(O)c(O)c1 [EGCG, [(2R,3R)-5,7-dihydroxy-2-(3,4,5-trihydroxyphenyl)-3,4-dihydro-2H-chromen-3-yl] 3,4,5-trihydroxybenzoate]
[1]; administered individually and in combination
  transport across the blood brain barrier, in words: crossed the BBB in its native form
[1]; individually treated T, M and E, i.p. 7 days, NA = not detected
  Detected mass in LC-MS Brain: 466.11
[1]; [6]
  Detected mass in LC-MS Brain: 456.11
  Detected mass in LC-MS Plasma: 452.91
Rat brain tissue [2]
  protein levels of HIF-1α: significantly reduced
  protein levels of Nrf-2: significantly reduced
Rat brain tissue [3]
  gene expression levels of Nrf-2 and HIF-1α: reduced expression
TBARS in U87MG cells
  TBARS levels: significantly elevated
[4]
  cell viability (MTT), in words: reduction in cell viability in a dose-dependent fashion
[5]
  concentrations of antioxidant markers SOD, CAT, GPx, and GSH: significantly enhanced
TBARS in C6 cells
  TBARS levels: significantly elevated
